Experimental findings from patent US4537723A, “Derivatives of leukotrienes A and C” (The Upjohn Company, priority 1983, dated 1985) are described below.

The subject of the assay is SRS-A formation in rat mononuclear cells. Description: SRS-A formation in rat mononuclear cells incubated with cysteine and challenged with a calcium ionophore. It is filed as cell-based. The note with it: 10 μg/ml; for inhibition at 10 µg/mL: Rattus norvegicus, read-out: effectiveness in preventing the synthesis of SRS-A. As for the experimental part: As an example of the SRS-A inhibitory activity of the compounds of this invention, several of these compounds were evaluated in a standard laboratory test. This test is conducted in rat mononuclear cells incubated in the presence of cysteine and challenged with a calcium ionophore (which induces SRS-A formation). In this test system, two of these compounds, the isomers of 1-carboxy-3-N-octylcyclopropane-2-octanoic acid.

`CCCCCCCCC1C(CCCCCCCC(=O)O)C1C(=O)O` (stereo not drawn) [Example 4, 1-Carboxy-3-n-Octylcyclopropane-2-Octanoic Acid]: the “inhibition of the synthesis of SRS-A” value (rat mononuclear cells, calcium ionophore challenge) was “totally inhibited”.

For the molecule `CCCCCCCCC(O)C(CCCCCCCC(=O)O)[Se]c1ccccc1` (stereo not drawn) [9-Phenylselenyl-10-Hydroxyoctadecanoic Acid], the inhibition at 10 µg/mL was found to be 100%.

For `CCCCCCCCC([Se]c1ccccc1)C(O)CCCCCCCC(=O)O` (stereo not drawn) [9-Hydroxy-10-Phenylselenyloctadecanoic Acid], the inhibition at 10 µg/mL was 100%.
